Consider 42 compounds from US20090076012A1, “Modulation of pathogenicity” (priority 2002, published 2009).

For this assay, the system named is bioluminescent sensor strain Escherichia coli MT102 (pSB403). Briefly: Biosensor assay: quorum sensing inhibition, bioluminescence of the sensor strain. The assay is classed as cell-based. The following applies: 3oxo-C6-HSL 100 nM, bioluminescence after 4 hours at 30° C. Here is the method:
Quorum sensing inhibition of the compounds was investigated with the aid of the bioluminescent sensor strain Escherichia coli MT102 (pSB403) (Winson et al., FEMS Microbiol. Lett. 163:185-92, 1998). Plasmid pSB403 contains the Photobacterium fischeri luxR gene together with the […] promoter region as a transcriptional fusion to the bioluminescence genes luxCDABE of Photorhabdus luminescence.
Inhibitory studies were conducted in a microtitre dish assay as follows: the E. coli sensor strain grown over night in LB medium (Sambrook et al., Molecular Cloning: A Laboratory Manual. 2nd Edn. Cold Spring Harbor Laboratory, New York, 1989) was diluted 1:4 and grown for another 1 hour at 30° C. After addition of 3oxo-C6-HSL (final concentration 100 nM) 100 μl of an exponential culture suspension were filled in the wells of a FluoroNunc Polysorp microtitre dish. The test compounds were added to the culture in different concentrations and bioluminescence was measured after 4 hours of incubation at 30° C. with a Lamda Fluoro 320 Plus reader (Bio-Tek Instruments). Inhibitor-mediated reduction of light emission was correlated with the value obtained without addition of the test compounds. IC50 values (concentration of inhibitor required for 50% inhibition of the signal compared to the signal without inhibitor) were determined by using a fitting function after drawing a graph of the activities of eight different inhibitor concentrations.

In the case of `CCCCCCC(=O)CC(=O)Nc1ccnn1C` [Compound 114, 3-Oxo-nonanoic acid (2methyl-2H-pyrazol-3-yl)-amide], the IC50 (Escherichia coli, 4 h) was > 100 µM.
Take `COc1ccc(NC(=O)NNC(=O)c2ccc(Br)s2)cc1` [Compound 109, 1-(5-Bromo-thiophene-2-carbonyl)-4-(4-methoxy-phenyl)-semicarbazide]: the half-maximal inhibitory concentration (IC50) (Escherichia coli, 4 h) was > 100 µM.
Under “Escherichia coli, 4 h”, `O=C(CCC1CCCC1)NNC(=O)c1ccco1` [Compound 90, Furan-2-carboxylic acid N′-(3-cyclopentyl-propionyl)-hydrazide] displayed an IC50 of 1 to 50 µM.
Take `CCn1nc(C)c(Br)c1C(=O)NNC(=O)c1ccc(Cl)s1` [Compound 67, 4-Bromo-2ethyl-5-methyl-2H-pyrazole-3-carboxylic acid N′-(5-chloro-thiophene-2-carbonyl)-hydrazide]: the IC50 is > 100 µM.
Take `CCn1nc(C)c(Br)c1C(=O)Nc1ccnn1C` [Compound 12, 4-Bromo-2-ethyl-5-methyl-2H-pyrazole-3-carboxylic acid (2-methyl-2H-pyrazol-3-yl)-aide]: the IC50 (Escherichia coli, 4 h) lay within 1 to 50 µM.
For the compound `CCCCCCC(=O)CC(=O)Nc1nc(SC)sc1C(C)=O` [Compound 129, 3-Oxo-nonanoic acid (5-acetyl-2-methylsulfanyl-thiazol-4-yl)-amide], the IC50 (Escherichia coli, 4 h) was > 100 µM.
As to `Cn1nccc1NC(=O)CCCCCBr` [Compound 22, 6-Bromo-hexanoic acid (2-methyl-2H-pyrazole-3-yl)-amide], the IC50 (Escherichia coli, 4 h) fell in the range of 1 to 50 µM.
Same read-out and setting: the result for `Cn1nc(-c2ccc(Cl)cc2)cc1NC(=O)CCCCCBr` [Compound 16, 6-Bromo-hexanoic acid [5-(4chloro-phenyl)-2-methyl-2H-pyrazol-3-yl]-amide] reads 1 to 50 µM; that for `COc1c(C(=O)NNC(=O)c2cccs2)csc1Br` [Compound 42, Thiophene-2-carboxylic acid N′-(5-bromo-4-methoxy-thiophene-3-carbonyl)-hydrazide], 1 to 50 µM; that for `CCCCCCCCCC(=O)CC(=O)Nc1oc(C)c(C)c1C#N` [Compound 137, 3-Oxododecanoic acid (3-cyano-4,5-dimethyl-furan-2-yl)-amide], > 100 µM.
With `CCCCCCC(=O)NNC(=O)c1ccco1` [Compound 89, Furan-2-carboxylic acid N′-heptanoyl-hydrazide], the 50% inhibitory concentration (IC50) (Escherichia coli, 4 h) lay in the range of 1 to 50 µM.
In turn, `O=C(NNC(=O)c1ccc(Br)s1)c1cccs1` [Compound 59, Thiophene-2-carboxylic acid N′-(5-bromo-thiophene-2-carbonyl)-hydrazide] gave a half-inhibitory concentration (IC50) (Escherichia coli, 4 h) of 1 to 50 µM.
Regarding `Cc1cc(C(=O)Nc2cccnc2)cc(Cl)n1` [Compound 11, 2-Chloro-6-methyl-N-pyridin-3-yl-iso-nicotinamide], the concentration for half-maximal inhibition (IC50) (Escherichia coli, 4 h) was 1 to 50 µM.
Under “Escherichia coli, 4 h”, `O=C(NNC(=O)c1cccs1)c1ccsc1` [Compound 47, Thiophene-3-carboxylic acid N′-(thiophene-2-carbonyl)-hydrazide] registered a concentration for half-maximal inhibition (IC50) of 1 to 50 µM.
On the same count and under the same terms, the result for `O=C(NNC(=O)c1sccc1Cl)c1cnn(-c2ccccc2)c1C(F)(F)F` [Compound 33, 3-Chloro-thiophene-2-carboxylic acid N′-(1-phenyl-5-trifluoromethyl-1H-pyrazole-4-carbonyl)-hydrazide] reads > 100 µM; that for `COc1cscc1C(=O)NNC(=O)c1ccc(Cl)cc1` [Compound 30, 4-Chloro-benzoic acid N′-(4-methoxy-thiophene-3-carbonyl)-hydrazide], > 100 µM.
Take `Cc1csc(C(=O)NNC(=O)c2cccs2)c1Cl` [Compound 43, Thiophene-2-carboxylic acid N′-(3-chloro-4-methyl-thiophene-2-carbonyl)-hydrazide]: the IC50 (Escherichia coli, 4 h) lay within 1 to 50 µM.
Regarding `CCOc1ccsc1C(=O)NNC(=O)c1sccc1Br` [Compound 56, 3-Bromo-thiophene-2-carboxylic acid N′-(3-ethoxy-thiophene-2-carbonyl)-hydrazide], the half-maximal inhibitory concentration (IC50) (Escherichia coli, 4 h) is 1 to 50 µM.
The same measure, in the same setting: the result for `O=C(NNC(=O)c1sc2ccccc2c1Cl)c1ccc(Br)s1` [Compound 62, 3-Chloro-benzo[b]thiophene-2-carboxylic acid N′-(5-bromo-thiophene-2-carbonyl)-hydrazide] reads 50 to 100 µM.
As for `COc1c(C(=O)NNC(=O)c2ccc(C)s2)csc1Br` [Compound 53, 5-Bromo-4-methoxy-thiophene-3-carboxylic acid N′-(5-methyl-thiophene-2-carbonyl)-hydrazide], the half-inhibitory concentration (IC50) (Escherichia coli, 4 h) lay within 1 to 50 µM.
Turning to `O=C(NNC(=O)c1cc(Br)c(Br)s1)Nc1ccc(Cl)c(C(F)(F)F)c1` [Compound 103, 4-(4-Chloro-3-trifluoromethyl-phenyl)-1-(4,5-dibromo-thiophene-2-carbonyl)-semicarbazide], the IC50 (Escherichia coli, 4 h) lay within 50 to 100 µM.
With `CCCCCCC(=O)CC(=O)Nc1oc(C)c(C)c1C#N` [Compound 136, 3-Oxo-nonanoic acid (3-cyano-4,5-dimethyl-furan-2-yl)-amide], the IC50 (Escherichia coli, 4 h) is > 100 µM.
With `CCCCCCCCCC(=O)CC(=O)Nc1cc(C)no1` [Compound 133, 3-Oxo-dodecanoic acid (3-methyl-isoxazol-5-yl)-amide], the half-maximal inhibitory concentration (IC50) (Escherichia coli, 4 h) is > 100 µM.
For the compound `CCCCCCCCCC(=O)CC(=O)Nc1ccnn1C` [Compound 115, 3-Oxo-dodecanoic acid (2-methyl-2H-pyrazol-3-yl)-amide], the concentration for half-maximal inhibition (IC50) (Escherichia coli, 4 h) was > 100 µM.
Still for that read-out and setting: the same measure for `CCCCCCCCCC(=O)CC(=O)Nc1scc(C)c1C(=O)OCC` [Compound 124, 4-Methyl-2-(3-oxo-dodecanoylamino)-thiophene-3-carboxylic acid ethyl ester]: > 100 µM; for `Cc1ccc(C(=O)NNC(=O)CCCCCBr)s1` [Compound 82, 5-Methyl-thiophene-2-carboxylic acid N′-(6-bromohexanoyl)-hydrazide]: 1 to 50 µM; for `Cc1csc(C(=O)NNC(=O)CCCCCBr)c1Cl` [Compound 80, 3-Chloro-4-methyl-thiophene-2-carboxylic acid N′-(6-bromo-hexanoyl)-hydrazide]: 1 to 50 µM.
On to `CCCCCCCC(=O)NNC(=O)c1sccc1Br` [Compound 85, 3-Bromo-thiophene-2carboxylic acid N′-octanoyl-hydrazide], for which the 50% inhibitory concentration (IC50) (Escherichia coli, 4 h) was 1 to 50 µM.
Regarding `CSc1ccc(NC(=O)NNC(=O)c2scc(C)c2Cl)cc1` [Compound 105, 1-(3-Chloro-4-methyl-thiophene-2-carbonyl)-4-(4-methylsulfanyl-phenyl)-semicarbazide], the half-inhibitory concentration (IC50) (Escherichia coli, 4 h) was 1 to 50 µM.
`Cc1csc(C(=O)NNC(=O)c2ccc(C(F)(F)F)cc2)c1` [Compound 28, 4-Trifluoromethyl-benzoic acid N′-(4-methyl-thiophene-2-carbonyl)-hydrazide] gave an IC50 (Escherichia coli, 4 h) of 50 to 100 µM.
In the case of `O=C(NNC(=O)c1ccc(Br)s1)Nc1ccccc1CCl` [Compound 107, 1-(5-Bromo-thiophene-2-carbonyl)-4-(2-chloromethyl-phenyl)-semicarbazide], the IC50 (Escherichia coli, 4 h) was 1 to 50 µM.
As for `O=C(NNC(=O)c1cc(Cl)sc1Cl)c1ccco1` [Compound 40, Furan-2-carboxylic acid N′-(2,5-dichloro-thiophene-3-carbonyl)-hydrazide], under “Escherichia coli, 4 h”, the half-inhibitory concentration (IC50) fell in the range of 1 to 50 µM.
In the case of `O=C(Nc1cccc(C(F)(F)F)c1)c1cnc(Cl)nc1C(F)(F)F` [Compound 6, 2-Chloro-4-trifluoromethyl-pyrimidine-5-carboxylic acid (3-trifluoromethyl-phenyl)-amide], where the note is “Escherichia coli, 4 h”, the IC50 was 50 to 100 µM.
On the same count and under the same terms, the result for `O=C(NNC(=O)c1cccs1)c1cccc(Cl)c1` [Compound 31, 3-Chloro-benzoic acid N′-(thiophene-2-carbonyl)-hydrazide] reads 50 to 100 µM; that for `COC(=O)c1ccsc1NC(=O)c1cnc(Cl)nc1C(F)(F)F` [Compound 4, 2-[(2-Chloro-4-trifluoro-methyl-pyrimidine-5-carbonyl)-amino]-thiophene-3-carboxylic acid methyl ester], > 100 µM.
Consider `CCCCCCCCCC(=O)CC(=O)Nc1nccs1` [Compound 128, 3-Oxo-dodecanoic acid thiazol-2-ylamide], for which the IC50 (Escherichia coli, 4 h) was > 100 µM.
`CCOc1ccsc1C(=O)NNC(=O)c1ccco1` [Compound 37, Furan-2-carboxylic acid N′-(3-ethoxy-thiophene-2-carbonyl)-hydrazide] yielded an IC50 (Escherichia coli, 4 h) of 50 to 100 µM.
For `O=C(NNC(=O)c1sc2ccccc2c1Cl)Nc1cc(Cl)nc(Cl)c1` [Compound 111, 1-(3-Chloro-benzo[b]thiophen-2-carbonyl)-4-(2,6-dichloro-pyridinyl)-semicarbazide], the IC50 (Escherichia coli, 4 h) was > 100 µM.
Still for that read-out and setting: the same measure for `O=C(NNC(=O)c1sccc1Br)c1cccs1` [Compound 55, Thiophene-2-carboxylic acid N′-(3-bromo-thiophene-2-carbonyl)-hydrazide]: 1 to 50 µM.
`O=C(NNC(=O)c1ccc(Br)s1)Nc1ccc(F)cc1C(F)(F)F` [Compound 102, 1-(5-Bromo-thiophene-2-carbonyl)-4-(4-fluoro-2-trifluoromethyl-phenyl)-semicarbazide]: where the note is “Escherichia coli, 4 h”, the half-inhibitory concentration (IC50) was > 100 µM.
The same measure, in the same setting: the same measure for `O=C(NNC(=O)c1sc2ccccc2c1Cl)c1ccco1` [Compound 41, Furan-2-carboxylic acid N′-(3-chloro-benzo[b]thiophene-2-carbonyl)-hydrazide]: 1 to 50 µM; for `Cc1csc(C(=O)NNC(=O)c2ccco2)c1Cl` [Compound 36, Furan-2-carboxylic acid N′-(3-chloro-4-methyl-thiophene-2-carbonyl)-hydrazide]: 50 to 100 µM.
